Ki data for 22 compounds are collected here from patent US8791148B2, “Substituted benzimidazolone derivatives, medicaments comprising them and their use” (AbbVie Deutschland GmbH & Co. KG, priority 2006, dated 2014).

Structures are written as SMILES.

The experiment addresses T1, human vasopressin V1b receptor (Homo sapiens, UniProt P47901).
T1 construct: expressed in transfected cells; host or cells: CHO-K1 (cell line hV1b-3H2_CHO), membrane preparation
T1 sequence (P47901 1-424): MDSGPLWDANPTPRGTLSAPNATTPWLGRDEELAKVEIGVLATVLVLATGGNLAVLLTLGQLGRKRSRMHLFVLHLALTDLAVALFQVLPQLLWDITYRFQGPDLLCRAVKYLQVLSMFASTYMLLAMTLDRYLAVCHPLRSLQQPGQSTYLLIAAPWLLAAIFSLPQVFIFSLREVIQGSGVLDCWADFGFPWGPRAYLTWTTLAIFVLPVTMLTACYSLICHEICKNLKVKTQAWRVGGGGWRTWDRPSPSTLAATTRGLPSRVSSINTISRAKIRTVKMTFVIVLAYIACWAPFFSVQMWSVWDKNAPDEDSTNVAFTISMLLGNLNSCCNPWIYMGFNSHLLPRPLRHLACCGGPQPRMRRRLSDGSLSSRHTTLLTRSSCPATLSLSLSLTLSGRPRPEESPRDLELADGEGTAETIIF
Kind of experiment: Vasopressin V1b receptor binding assay. The note with it: membranes from CHO-K1 cells with stably expressed human V1b receptors; displacement of 1.5 nM 3H-AVP; read-out: V1b receptor affinity (affinity constant Ki). On the procedure: Vasopressin V1b Receptor Binding Assay:
The test substances were dissolved in a concentration of 10^−2 M in DMSO and further diluted to 5×10^−4 M to 5×10^−9 M in DMSO. This series of DMSO predilutions was diluted 1:10 with assay buffer. The substance concentration was again diluted 1:5 in the assay mixture (2% DMSO in the mixture).
The membrane pellet was again homogenized and centrifuged as described and then taken up in 50 mM Tris-HCl, pH 7.4, homogenized and stored in aliquots frozen in liquid nitrogen at −190° C.
The incubation buffer was: 50 mM Tris, 10 mM MgCl2, 0.1% BSA, pH 7.4. […] The nonspecific binding was determined with 1 uM AVP (Bachem #H1780). All determinations were carried out as triplicate determinations. After incubation (60 minutes at room temperature), the free radioligand was removed by vacuum filtration (Skatron cell harvester 7000) through Wathman GF/B glass fiber filter mats, and the filters were transferred into scintillation vials. The liquid scintillation measurement took place in a Tricarb model 2000 or 2200CA instrument (Packard). Conversion of the measured cpm into dpm was carried out with the aid of a standard quench series.
The binding parameters were calculated by nonlinear regression in SAS.
The above assay was used to measure the affinities of the compounds of the invention for the human vasopressin V1b receptor and to determine the affinity constants (Ki).
As to `COc1ccc(S(=O)(=O)n2c(=O)n(C(C(=O)N3CC[C@@H](N4CCN(C)CC4)C3)c3ccccc3)c3cc(C#N)ccc32)cc1` (stereo partly drawn) [Example 162, 1-(4-Methoxybenzenesulfonyl)-3-{2-[(R)-3-(4-methylpiperazin-1-yl)-pyrrolidin-1-yl]-2-oxo-1-phenylethyl}-2-oxo-2,3-dihydro-1H-benzimidazole-5-carbonitrile], the Ki lay within 100 to 500 nM.
The value for `COc1ccc(S(=O)(=O)n2c(=O)n(C(C(=O)N3CCCC(N4CCNCC4)C3)c3ccccc3)c3cc(Cl)ccc32)cc1` (stereo not shown) [Example 147, 5-Chloro-1-(4-methoxybenzenesulfonyl)-3-[2-oxo-1-phenyl-2-(3-piperazin-1-ylpiperidin-1-yl)ethyl]-1,3-dihydrobenzimidazol-2-one] was < 100 nM.
The value for `COc1ccc(S(=O)(=O)n2c(=O)n(C(C(=O)N3CC[C@H](NC4CCN(CCF)CC4)C3)c3ccccc3)c3cc(C#N)ccc32)cc1` (stereo partly drawn) [Example 245, 3-(2-{(S)-3-[1-(2-Fluoro-ethyl)-piperidin-4-ylamino]-pyrrolidin-1-yl}-2-oxo-1-phenyl-ethyl)-1-(4-methoxy-benzenesulfonyl)-2-oxo-2,3-dihydro-1H-benzoimidazole-5-carbonitrile] was < 100 nM; that for `COc1ccc(S(=O)(=O)n2c(=O)n(C(C(=O)N3CC[C@H](N4CCN(Cc5ccccc5)CC4)C3)c3ccccc3)c3cc(Cl)ccc32)cc1` (stereo partly drawn) [Example 140, 3-{2-[(S)-3-(4-Benzylpiperazin-1-yl)pyrrolidin-1-yl]-2-oxo-1-phenylethyl}-5-chloro-1-(4-methoxybenzenesulfonyl)-1,3-dihydrobenzimidazol-2-one] was < 100 nM; that for `COc1ccc(S(=O)(=O)n2c(=O)n(CC(=O)N3CCCC3)c3cc(Cl)ccc32)cc1` [Example 90, 5-Chloro-1-(4-methoxybenzenesulfonyl)-3-(2-oxo-2-pyrrolidin-1-yl-ethyl)-1,3-dihydrobenzimidazol-2-one] was 500 to 10000 nM.
`COc1ccc(S(=O)(=O)n2c(=O)n(C(C(=O)N3CC[C@@H](N4CCNCC4)C3)c3ccccc3)c3cc(Cl)ccc32)cc1` (stereo partly drawn) [Example 145, 5-Chloro-1-(4-methoxybenzenesulfonyl)-3-[2-oxo-1-phenyl-2-((R)-3-piperazin-1-yl-pyrrolidin-1-yl)-ethyl]-1,3-dihydrobenzimidazol-2-one]: the Ki was < 100 nM.
As to `CCN(CC)C(=O)C(c1ccccc1)n1c(=O)n(S(=O)(=O)c2ccc(OC)cc2)c2ccc(Cl)cc21` (stereo not shown) [Example 104, 2-[6-Chloro-3-(4-methoxybenzenesulfonyl)-2-oxo-2,3-dihydrobenzimidazol-1-yl]-N,N-diethyl-2-phenylacetamide], the Ki was 500 to 10000 nM.
On to `COc1ccc(S(=O)(=O)n2c(=O)n(C(C(=O)N3CC[C@H](CNC4CCN(C)CC4)C3)c3ccccc3)c3cc(C#N)ccc32)cc1` (stereo partly drawn) [Example 255, 1-(4-Methoxy-benzenesulfonyl)-3-(2-{(R)-3-[(1-methyl-piperidin-4-ylamino)-methyl]-pyrrolidin-1-yl}-2-oxo-1-phenyl-ethyl)-2-oxo-2,3-dihydro-1H-benzoimidazole-5-carbonitrile; compound with trifluoroacetic acid], for which the Ki is < 100 nM.
Then `N#Cc1ccc(S(=O)(=O)n2c(=O)n(C(C(=O)N3CCN(c4ccncc4)CC3)c3ccccc3)c3cc(Cl)c(Cl)cc32)cc1` (stereo not shown) [Example 62, 4-{5,6-Dichloro-2-oxo-3-[2-oxo-1-phenyl-2-(4-pyridin-4-ylpiperazin-1-yl)-ethyl]-2,3-dihydrobenzimidazol-1-sulfonyl}benzonitrile], with 500 to 10000 nM.
`COc1ccc(S(=O)(=O)n2c(=O)n(C(C(=O)N3CCN(C4CCN(C)CC4)CC3)c3ccccc3)c3ccc(Cl)cc32)c(OC)c1` (stereo not shown) [Example 37, 5-Chloro-3-(2,4-dimethoxybenzenesulfonyl)-1-{2-[4-(1-methylpiperidin-4-yl)piperazin-1-yl]-2-oxo-1-phenylethyl}-1,3-dihydrobenzimidazol-2-one]: the Ki was 500 to 10000 nM.
`COc1ccc(S(=O)(=O)n2c(=O)n(C(C(=O)N3CC[C@H](Nc4ccncc4)C3)c3ccccc3)c3cc(C#N)ccc32)cc1` (stereo partly drawn) [Example 253, 1-(4-Methoxy-benzenesulfonyl)-2-oxo-3-{2-oxo-1-phenyl-2-[(S)-3-(pyridine-4-ylamino)-pyrrolidin-1-yl]-ethyl}-2,3-dihydro-1H-benzoimidazole-5-carbonitrile; compound with trifluoroacetic acid]: the Ki is < 100 nM.
Then `COc1ccc(S(=O)(=O)n2c(=O)n(C(C(=O)N3CCC[C@H](N4CCN(C)CC4)C3)c3ccccc3)c3cc(C#N)ccc32)cc1` (stereo partly drawn) [Example 193, 1-(4-Methoxybenzenesulfonyl)-3-{2-[(S)-3-(4-methylpiperazin-1-yl)piperidin-1-yl]-2-oxo-1-phenylethyl}-2-oxo-2,3-dihydro-1H-benzimidazole-5-carbonitrile], with < 100 nM; and `COc1ccc(S(=O)(=O)n2c(=O)n(C(C(=O)N3CCN(C4CCN(C)CC4)CC3)c3ccccc3)c3cc(Cl)ccc32)cc1` (stereo not shown) [Example 55, 5-Chloro-1-(4-methoxybenzenesulfonyl)-3-{2-[4-(1-methylpiperidin-4-yl)piperazin-1-yl]-2-oxo-1-phenylethyl}-1,3-dihydrobenzimidazol-2-one], with 100 to 500 nM; and `CCN(CCN(C)C)C(=O)C(c1ccccc1)n1c(=O)n(S(=O)(=O)c2ccc(OC)cc2)c2ccc(Cl)cc21` (stereo not shown) [Example 118, 2-[6-Chloro-3-(4-methoxybenzenesulfonyl)-2-oxo-2,3-dihydrobenzimidazol-1-yl]-N-(2-dimethylaminoethyl)-N-ethyl-2-phenylacetamide], with < 100 nM.
In the case of `COc1ccc(S(=O)(=O)n2c(=O)n(C(C(=O)N3CC[C@H](N4CCN(C)CC4)C3)c3ccccc3)c3cc(Cl)ccc32)cc1` (stereo partly drawn) [Example 153, 5-Chloro-1-(4-methoxybenzenesulfonyl)-3-{2-[(S)-3-(4-methylpiperazin-1-yl)pyrrolidin-1-yl]-2-oxo-1-phenylethyl}-1,3-dihydrobenzimidazol-2-one], the Ki was < 100 nM.
Then `COc1ccc(S(=O)(=O)n2c(=O)n(C(C(=O)N3CCC(N)CC3)c3ccccc3)c3cc(C#N)ccc32)cc1` (stereo not shown) [Example 239, 3-[2-(4-Amino-piperidin-1-yl)-2-oxo-1-phenyl-ethyl]-1-(4-methoxybenzenesulfonyl)-2-oxo-2,3-dihydro-1H-benzoimidazole-5-carbonitrile], with 500 to 10000 nM.
Take `COc1ccc(S(=O)(=O)n2c(=O)n(C(C(=O)N3CCN(c4ccncc4)CC3)c3ccccc3)c3cc(Cl)ccc32)c(OC)c1` (stereo not shown) [Example 56, 5-Chloro-1-(2,4-dimethoxybenzenesulfonyl)-3-[2-oxo-1-phenyl-2-(4-pyridin-4-ylpiperazin-1-yl)-ethyl]-1,3-dihydrobenzimidazol-2-one]: the Ki was 100 to 500 nM.
Then `N#Cc1ccc(S(=O)(=O)n2c(=O)n(C(C(=O)N3CCN(c4ccncc4)CC3)c3ccccc3)c3cc(Cl)ccc32)cc1` (stereo not shown) [Example 57, 4-{5-Chloro-2-oxo-3-[2-oxo-1-phenyl-2-(4-pyridin-4-ylpiperazin-1-yl)-ethyl]-2,3-dihydrobenzimidazole-1-sulfonyl}-benzonitrile], with < 100 nM.
On to `COc1ccc(S(=O)(=O)n2c(=O)n(C(C(=O)NCCCN3CCCC3=O)c3ccccc3)c3cc(Cl)ccc32)cc1` (stereo not shown) [Example 125, 2-[6-Chloro-3-(4-methoxybenzenesulfonyl)-2-oxo-2,3-dihydrobenzimidazol-1-yl]-N-[3-(2-oxopyrrolidin-1-yl)propyl]-2-phenylacetamide], for which the Ki fell in the range of 500 to 10000 nM.
Then `CCCN1CCN(C2CCN(C(=O)C(c3ccccc3)n3c(=O)n(S(=O)(=O)c4ccc(OC)cc4)c4ccc(I)cc43)C2)CC1` (stereo not shown) [Example 80, 5-Iodo-1-(4-methoxybenzenesulfonyl)-3-{2-oxo-1-phenyl-2-[3-(4-propylpiperazin-1-yl)pyrrolidin-1-yl]ethyl}-1,3-dihydrobenzimidazol-2-one], with < 100 nM.
The value for `COc1ccc(S(=O)(=O)n2c(=O)n(C(C(=O)NCCCCN(C)C)c3ccccc3)c3cc(Cl)ccc32)cc1` (stereo not shown) [Example 124, 2-[6-Chloro-3-(4-methoxybenzenesulfonyl)-2-oxo-2,3-dihydrobenzimidazol-1-yl]—N-(4-dimethylaminobutyl)-2-phenylacetamide] was 100 to 500 nM.
The value for `COc1ccc(C(C(=O)N2CCN(c3ccncc3)CC2)n2c(=O)n(S(=O)(=O)c3ccc(OC)cc3OC)c3ccc(Cl)cc32)cc1` (stereo not shown) [Example 1, 5-Chloro-1-(2,4-dimethoxybenzenesulfonyl)-3-[1-(4-methoxyphenyl)-2-oxo-2-(4-pyridin-4-ylpiperazin-1-yl)ethyl]-1,3-dihydrobenzimidazol-2-one] was 100 to 500 nM.

In general, Ki refers to a measure of affinity in units of concentration, obtained from inhibition or displacement.
